The subject of one data set is CCA lines. In words: Proliferation by MTS assay in CCA lines and H69. It counts as cell-based, human. The following applies: melatonin 10-7 to 10-11 M, 24-72 hours. The procedure:
Methods: Melatonin immunoreactivity, the expression of melatonin biosynthesis enzymes and receptors were assessed by immunohistochemistry in tissue arrays from normal and CCA patients, and by qPCR and immunoblots in intra-hepatic and extra-hepatic CCA cell lines, and a normal cholangiocyte line (H69). Proliferation was evaluated in vitro by MTS assay in CCA lines and H69 after treatment with melatonin (10-7 to 10-11 M, 24-72 hours). In parallel, the expression of CLOCK after melatonin treatment (10-11 M for 48 hours) was assessed in CCA lines and normal cholangiocytes by qPCR.
For orientation: Tetrazolium dyes change colour on reduction, which living cells bring about.

The next data set has as its system AANAT. In words: Expression of AANAT in liver sections, cholangiocytes, pineal gland and small intestine (immunohistochemistry, real-time PCR). It counts as in vivo, rat. The procedure: Male Fischer 344 rats (150-175 gm) were purchased from Charles River Laboratories (Wilmington, Mass.) and housed at 22° C. with 12:12 hr light/dark cycles. The animals had free access to standard chow and drinking water. […] Animal experiments were performed in accordance with a protocol approved by the Scott & White and Texas A&M Health Science Center IACUC. In separate experiments, normal rats treated with Vivo-Morpholino sequences of AANAT (5'-[…] NO:1), to reduce the biliary expression of AANAT) or Morpholino mismatched (5'-[…] NO:2)) (Gene Tools LCC) (1 mg/Kg BW/day) for 1 week via an implanted portal vein catheter. Serum, liver tissue, cholangiocytes, kidney, spleen, small intestine, stomach and heart were collected. Since our goal was to knock-down AANAT expression in the liver without inhibiting AANAT expression in other organs, we used a lower dose (1 mg/Kg/day) of Vivo-Morpholino than that described in the original study (3.0 mg/kg/day (Arora et al., 2002). This approach minimizes the amount of Vivo-Morpholino that circulates outside of the liver after slow infusion into the portal vein. See below for the surgical procedure for the implantation of the portal vein catheter by which AANAT Vivo-Morpholino or Morpholino mismatched was administered. The following was evaluated: (i) the expression of AANAT in liver sections and cholangiocytes from the selected groups of animals; and (ii) the effectiveness of the AANAT Vivo-Morpholino in lowering the expression of AANAT in cholangiocytes was determined. […] Data were expressed as relative mRNA levels ±SEM of the selected gene to glyceraldehyde-3-phosphate dehydrogenase (GAPDH) ratio. […]
(In qPCR the cycle at which signal appears reflects the starting amount.)

Data set [1] relates to PER1, BMAL1, CRY1, CLOCK, MT1 and MT2. Put plainly: Expression of clock genes and MT1/MT2 in cholangiocytes from treated rats (real-time PCR, FACS). It counts as in vivo, rat. The procedure: Male 344 Fischer rats (150-175 g) were purchased from Charles River (Wilmington, Mass.) and kept in a temperature-controlled environment (22° C.) with 12:12 hr light/dark cycles. Animals were fed ad libitum and had free access to food and drinking water. […] Before each surgical procedure, animals were anesthetized with sodium pentobarbital (50 mg/kg BW, IP). All animal experiments were performed in accordance with a protocol approved by the Scott and White and Texas A&M Health Science Center Institutional Animal Care and Use Committee and conform to the Guide for the Care and Use of Laboratory Animals published by the US National Institutes of Health (NIH Publication No. 85-23, revised 1996). In all animals, wet liver weight, body weight, wet liver weight to body weight ratio, and an index of liver cell growth including cholangiocytes were measured ([…] et al., 1988). […] FACS analysis was performed as described (Onori et al., 2010) using a C6 flow cytometer and analyzed by CFlow Software (Accuri Cytometers Inc. Ann Arbor, Mich.). […] The relative quantity of the selected protein (mean selected protein fluorescence) was expressed as mean FL1-A (samples)/mean FL-1A (secondary antibodies only). […] Data were expressed as relative mRNA levels ±SEM of the selected gene to glyceraldehyde-3-phosphate dehydrogenase (GAPDH) ratio.

Where [2] appears, read: normal rats, 1 mg/Kg BW/day 1 week vs. controls.

As to `COc1ccc2[nH]cc(CCNC(C)=O)c2c1` [melatonin], the “Decrease in CCA growth compared to normal cholangiocytes” value in the data set on CCA lines was determined as 65%. In addition, the “Expression of AANAT in bile ducts” value in the data set with AANAT (BDL rats treated with melatonin (20 mg/L in tap water) 1 week) was “increased”. Moreover, in data set [1] (BDL rats treated in vivo vs. regular tap water), the “Expression of MT1 and MT2 in cholangiocytes” value is “decreased”. The “Expression of PER1, BMAL1, CRY1 and CLOCK in cholangiocytes” value in data set [1] (normal and BDL rats treated in vivo vs. control cholangiocytes) is given as “decreased”.

“AANAT Vivo-Morpholino: Vivo-Morpholino sequence of AANAT 5′-GTTCCCCAGCTTTGGAAGTGGTCCC (SEQ ID NO:1), to reduce the biliary expression of AANAT (all phosphorodiamidate morpholino (PMO); Vivo-Morpholino delivery moiety attached, position not given here, further chemistry not fully specified)”: in the data set on AANAT (setting [2]), the AANAT biliary expression result is listed as “reduced”; the “AANAT mRNA levels in pineal gland and small intestine” value is “increased”.

Values taken from patent US9468670B2, “Melatonin-based treatment and diagnosis of bile duct disease” (Texas A&M University System, priority 2011, dated 2016).
